Test results published in PubChem BioAssay AID493075 (Broad Institute, 2011).
The source made the active and inactive calls.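 Rule for the calls: active = luminescence drop in every repeat test, with half-maximal concentration at most ten times the top dose; inconclusive = repeat tests disagree; inactive = inactive in every repeat test.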

Columns and labels:
[1] = tested on: Vibrio harveyi JMH597 AI-2 quorum sensing luminescence, 9 h; test: inhibitors of AI-2 quorum sensing in V. harveyi, dose response, LuxS, LuxPQ, dry powder, set 3 (AID 493075)
[2] = as above; details: Vibrio harveyi JMH597 AI-2 quorum sensing luminescence, 9 h; at 16 µM (top of the series)

## C=Cn1c(C(=O)O)ccc1-c1ccc(Cl)cc1
[1]
  AC50: 4.97 µM

## C[C@@H]1CN([C@H](C)CO)C(=O)c2cccc(NC(=O)Nc3ccc(C(F)(F)F)cc3)c2O[C@@H]1CN(C)C(=O)Nc1ccc(C(F)(F)F)cc1
[2]
  activity change, negative = inhibition: -16.5% (inactive)

## C[C@@H]1CN([C@@H](C)CO)C(=O)Cc2cc(NC(=O)CCCN(C)C)ccc2O[C@H]1CN(C)CC1CCCCC1
[2]
  activity change, negative = inhibition: 5.19% (inactive)

## C[C@H](CO)N1C[C@H](C)[C@H](CN(C)Cc2ccc(C(=O)O)cc2)Oc2ncc(-c3ccc(C(=O)N(C)C)cc3)cc2C1=O
[2]
  activity change, negative = inhibition: 24.5% (inactive)

## O=C1C=C/C(=C/Br)O1
[1]
  AC50: 3.78 µM

## Cc1ccc(S(=O)(=O)Nc2ccc3c(c2)CC(=O)N([C@@H](C)CO)C[C@@H](C)[C@H](CN(C)C(=O)Nc2ccc(F)cc2)O3)cc1
[2]
  activity change, negative = inhibition: -1.6% (inactive)

## C[C@@H]1CCCCO[C@@H](CN(C)Cc2ccc(C(=O)O)cc2)[C@H](C)CN([C@H](C)CO)C(=O)c2cc(NC(=O)CCCN(C)C)ccc2O1
[2]
  activity change, negative = inhibition: -4.89% (inactive)

## C=Cn1c(C(=O)O)ccc1-c1cccs1
[2]
  activity change, negative = inhibition: 1.45% (inactive)

## CNC[C@@H]1Oc2ccc(NC(=O)C3CCCCC3)cc2CC(=O)N([C@@H](C)CO)C[C@H]1C
[2]
  activity change, negative = inhibition: -5.97% (inactive)

## O=S(=O)(Nc1ccccn1)c1ccccc1
[2]
  activity change, negative = inhibition: -0.42% (inactive)

## CCc1ccc(-c2ccc(C(=O)O)n2C)cc1
[1]
  AC50: 4.46 µM

## C[C@H]1CN([C@@H](C)CO)C(=O)c2cc(NC(=O)Nc3ccc4c(c3)OCO4)ccc2O[C@@H]1CN(C)C(=O)Nc1ccc(C(F)(F)F)cc1
[2]
  activity change, negative = inhibition: -5.41% (inactive)

## CCc1ccc(S(=O)(=O)Nc2ccc(Br)cn2)cc1
[1]
  AC50: 3.67 µM

## C[C@@H]1CN([C@@H](C)CO)C(=O)Cc2cc(NC(=O)CCN3CCOCC3)ccc2O[C@H]1CN(C)C(=O)Nc1ccc(C(F)(F)F)cc1
[2]
  activity change, negative = inhibition: -2.52% (inactive)

## C[C@H](CO)N1C[C@H](C)[C@@H](CN(C)Cc2ccc3c(c2)OCO3)Oc2c(NC(=O)NC3CCCCC3)cccc2C1=O
[1]
  AC50: 7.05 µM

## C[C@@H]1CCCCO[C@@H](CN(C)C(=O)Nc2ccc(C(F)(F)F)cc2)[C@H](C)CN([C@@H](C)CO)C(=O)c2cc(NC(=O)CCC(F)(F)F)ccc2O1
[2]
  activity change, negative = inhibition: -7.66% (inactive)

## C[C@@H]1CN([C@H](C)CO)C(=O)c2ccccc2-c2ccccc2CO[C@@H]1CN(C)Cc1ccc(Oc2ccccc2)cc1
[1]
  AC50: 12.7 µM

## O=S(=O)(Nc1cccnc1)c1ccc(Oc2ccccc2)cc1
[1]
  AC50: 0.627 µM

## C[C@@H]1CN([C@@H](C)CO)C(=O)Cc2cc(NC(=O)CCN3CCOCC3)ccc2O[C@H]1CN(C)C(=O)Nc1ccc(F)cc1
[2]
  activity change, negative = inhibition: -10.1% (inactive)

## C[C@@H]1CCCCO[C@@H](CN(C)Cc2ccncc2)[C@H](C)CN([C@H](C)CO)C(=O)c2cc(NC(=O)C3CCCCC3)ccc2O1
[2]
  activity change, negative = inhibition: 0.341% (inactive)

## Cc1ccc(S(=O)(=O)Nc2ccc3c(c2)C(=O)N([C@H](C)CO)C[C@H](C)[C@@H](CN(C)Cc2ccc(C(F)(F)F)cc2)O3)cc1
[2]
  activity change, negative = inhibition: -11% (inactive)

## C[C@@H]1CCCCO[C@@H](CN(C)C(=O)Nc2cccc3ccccc23)[C@H](C)CN([C@H](C)CO)C(=O)c2cc(NC(=O)CCC(F)(F)F)ccc2O1
[2]
  activity change, negative = inhibition: -4.12% (inactive)

## C[C@H](CO)N1C[C@H](C)[C@@H](CN(C)C(=O)Nc2ccc(C(F)(F)F)cc2)Oc2ccc(NC(=O)Nc3ccc4c(c3)OCO4)cc2C1=O
[2]
  activity change, negative = inhibition: -5.58% (inactive)

## C=Cn1c(C(=O)O)ccc1-c1ccc(OC)cc1
[1]
  AC50: 8.59 µM
